Data from paper PMC8233162, “Structural characterization of two solute-binding proteins for N,N′-diacetylchitobiose/N,N′,N′′-triacetylchitotoriose of the gram-positive bacterium, Paenibacillus sp. str. FPU-7” (Journal of Structural Biology: X, 2021).
Where two headings read alike, the source gives them in different places.

Assays:
Type in all cases: binding, Paenibacillus sp. FPU-7
NagB2 [1] = target: T1, NagB2; assay: SPR (Biacore X100), crystal structure at […] Å, DSF
T1 construct: recombinant without signal peptide (Met1 to Ala20), C-terminal LEHHHHHH

NagB1 [2] = target: T2, NagB1; assay: SPR (Biacore X100), crystal structure at […] Å, DSF
T2 construct: recombinant without Met1–Ser21 signal peptide and Cys22–Phe48 (starts at Thr49), C-terminal LEHHHHHH

NagB1 [3] = target: T2, NagB1; assay: SPR (Biacore X100), DSF
NagB2 [4] = target: T1, NagB2; assay: SPR (Biacore X100), crystal structure at […] Å, DSF; remark: listed apart in the source

| Kd (NagB2 [1]) [nM] | Kd (NagB1 [2]) [nM] | Kd (NagB1 [3]) [nM] | Kd (NagB2 [4]) [nM] | SMILES |
| --- | --- | --- | --- | --- |
| 190 | 173 |  |  | CC(=O)N[C@H]1[C@H](O[C@H]2[C@H](O)[C@@H](NC(C)=O)C(O)O[C@@H]2CO)O[C@H](CO)[C@@H](O)[C@@H]1O (stereo partly shown) [(GlcNAc)2, N,N′-diacetylchitobiose] |
|  |  | 2970 | 1120 | CC(=O)N[C@H]1[C@H](O[C@H]2[C@H](O)[C@@H](NC(C)=O)C(O)O[C@@H]2CO)O[C@H](CO)[C@@H](O[C@@H]2O[C@H](CO)[C@@H](O)[C@H](O)[C@H]2NC(C)=O)[C@@H]1O (stereo partly shown) [(GlcNAc)3, N,N′,N′′-triacetylchitotoriose] |
